Data reported in patent US20230405132A1, “ANTITUMOR PHARMACEUTICAL COMPOSITION AND USE THEREOF” (JENKEM TECHNOLOGY CO., LTD. (TIANJIN), priority 2020, published 2023).
Counter-ions that a name gives are not always drawn.

How the values were obtained:
SK-N-SH cells = assay: SK-N-SH subcutaneous tumor model in mice: tumor volume and tumor growth inhibition; assay type: in vivo, mouse; settings: for tumor inhibition rate: SK-N-SH subcutaneous tumor model; for Tumor volume, mean ± standard error: TMZ 20 mg/kg PO, irinotecan hydrochloride or PEG-irinotecan 30 mg/kg IV
Description: SK-N-SH cells were cultured in an EMEM medium containing 10% heat-inactivated fetal bovine serum, 100 μg/mL penicillin, and 100 μg/mL streptomycin (incubator condition: 37° C., 5% CO 2). The cells were subcultured twice a week. The cells in the exponential phase were collected, and counted grafting.
2.2 Tumor grafting and grouping 100 μL of a mixture of EMEM and 50% matrigel containing 5×10^6 SK-N-SH cells was grafted subcutaneously at the right abdomen of a mouse, and the tumor growth was observed. 80 animals were randomized according to tumor volume (103 mm 3) by using the grouping randomization method in Excel. […] Each group had 10 tumor-bearing mice.
Tumor volume was measured twice a week using a vernier caliper.
(§1) The body weight and tumor volume were compared by using two-way ANOVA analysis. All data were analyzed using GraphPad Prism 5. p<0.05 indicates statistical significance.

[1] = Body weight of tumor-bearing mice during treatment; assay type: in vivo, mouse; settings: TMZ 20 mg/kg PO, irinotecan hydrochloride or PEG-irinotecan 30 mg/kg IV
Description: All procedures related to animal handling, care, and treatment in this study were performed according to the assessment of the Institutional Animal Care and Use Committee (IACUC) approved by Shanghai BioDuro Co., Ltd. (the CRO) and followed guidelines of the Association for Assessment and Accreditation of Laboratory Animal Care (AAALAC, accreditation number: 001516). In routine monitoring, the animals were examined that whether any adverse effects of tumor growth and/or treatment on normal behavior were present, such as motility, food and water consumption (by observation only), and body weight gain/loss (the body weight was measured twice a week during the pre-administration phase and daily during the administration phase), eye/hair matting and any other abnormalities.
as §1

SMILES | 1 − T/C (tumor inhibition rate TGI) (SK-N-SH cells; D 34) [%] | T/C (relative tumor proliferation rate) (SK-N-SH cells; D 34) [%] | tumor inhibition rate (SK-N-SH cells) [%] | Animal body weight, mean ± standard error ([1]; day 24) [g] | Animal body weight, mean ± standard error ([1]; day 27) [g] | Animal body weight, mean ± standard error ([1]; day 31) [g] | Animal body weight, mean ± standard error ([1]; day 34) | Animal body weight, mean ± standard error ([1]; day 38) | Animal body weight, mean ± standard error ([1]; day 41) | TV (b: Tumor volume on day 34) (SK-N-SH cells; Table 5, day 34) [mm^3] | Tumor volume, mean ± standard error (SK-N-SH cells; day 27) [mm^3] | Tumor volume, mean ± standard error (SK-N-SH cells; day 31) [mm^3] | Tumor volume, mean ± standard error (SK-N-SH cells; day 34) | Tumor volume, mean ± standard error (SK-N-SH cells; day 38) | Tumor volume, mean ± standard error (SK-N-SH cells; day 41)
CCc1c2c(nc3ccc(OC(=O)N4CCC(N5CCCCC5)CC4)cc13)-c1cc3c(c(=O)n1C2)COC(=O)[C@]3(O)CC [Irinotecan hydrochloride] | 30.99 | 69.01 | 31.0 | 22 ± 0.4 | 21.8 ± 0.5 | 23 ± 0.5 | 24.3 ± 0.5 g | 23.2 ± 0.4 (n = 8) g | 21 (n = 1) g | – | – | – | – | – | –
Cn1nnc2c(C(N)=O)ncn2c1=O [Temozolomide] | 25.04 | – | 25.0 | 21.7 ± 0.4 | 21.5 ± 0.5 | 22 ± 0.6 | 23.7 ± 0.7 (n = 9) g | 22.5 ± 0.5 (n = 5) g | 23.3 ± 1.1 (n = 2) g | 1827.5 ± 262.2 | 462.9 ± 67.1 | 1071 ± 144.9 | 1827.5 ± 262.2 (n = 9) mm^3 | 2179.6 ± 209.6 (n = 5) mm^3 | 3004.1 ± 100.8 (n = 2) mm^3
